# Literature values in US20170112824A1, “COMBINATION THERAPIES FOR THE TREATMENT OF FUNGAL INFECTIONS” (priority 2015, published 2017).
# How the values were obtained:
# [1] = in vivo
structure (smiles),measurement,setting,value
"NC(=O)NO [Hydroxyurea, hydroxyurea]",absorption,[1],readily absorbed
same,water solubility,,water-soluble
